Measured values published in paper PMC8443696, “Structural determinants and regulation of spontaneous activity in GABAA receptors” (Nature Communications, 2021).
Where “and” joins values, the source holds several entries; their conditions need not be identical. Equal values may be shown once. Read-outs that look alike come from different tables or passages of the source.

Legend:
α4β3δ receptors [1] = type: cell-based, mouse; set-up: spontaneous activity, Supp. Fig. 3e: unit not given here; conditions: for Ispont during staurosporine application: 200 nM staurosporine
Text: (§1) All components were obtained from Life Technologies.
(§2) Currents were acquired with Clampex ver.
(§3) Cells were voltage clamped at −40 mV.
(§4) For assessment of the efficacy of allosteric modulators on spontaneous activity, compounds were briefly applied (3–5 s) to achieve steady-state currents (IMod). […] The IMod was summed with IPTX (or subtracted for inhibitory modulators) and the Ispont calculated, as described by Eq. (2):2 Ispont(%)=[(IPTX+IMod)/(IPTX+IMax)]×100……………………………………

[2] = system: T1, α4β3^S408A,S409Aδ receptors; test: Quantification of spontaneous activity (Ispont) in HEK cells, whole-cell patch clamp; type: cell-based, mouse; conditions: for Ispont during staurosporine application: α4β3S408A,S409Aδ, 200 nM staurosporine, individual cells
T1 construct: expressed in transfected cells; host or cells: HEK 293
Text: as §1, §2, §3

[3] = system: T2, α4β3^S408D,S409Dδ receptors; test: as above; type: cell-based, mouse; conditions: for Ispont during staurosporine application: α4β3S408D,S409Dδ, 200 nM staurosporine, individual cells
T2 construct: expressed in transfected cells; host or cells: HEK 293
Text: as §1, §2, §3

α4β3δ receptors [4] = molecular target: T3, α4β3δ receptors (UniProt P18506+P63080+Q9D6F4); type: cell-based, mouse; set-up: spontaneous activity, Supp. Fig. 3e: unit not given here; conditions: for Ispont in the presence of modulator: α4β3δ, PS 10 µM (Fig. 6c)
T3 construct: expressed in transfected cells; host or cells: HEK 293
T3 sequence (Q9D6F4 36-552): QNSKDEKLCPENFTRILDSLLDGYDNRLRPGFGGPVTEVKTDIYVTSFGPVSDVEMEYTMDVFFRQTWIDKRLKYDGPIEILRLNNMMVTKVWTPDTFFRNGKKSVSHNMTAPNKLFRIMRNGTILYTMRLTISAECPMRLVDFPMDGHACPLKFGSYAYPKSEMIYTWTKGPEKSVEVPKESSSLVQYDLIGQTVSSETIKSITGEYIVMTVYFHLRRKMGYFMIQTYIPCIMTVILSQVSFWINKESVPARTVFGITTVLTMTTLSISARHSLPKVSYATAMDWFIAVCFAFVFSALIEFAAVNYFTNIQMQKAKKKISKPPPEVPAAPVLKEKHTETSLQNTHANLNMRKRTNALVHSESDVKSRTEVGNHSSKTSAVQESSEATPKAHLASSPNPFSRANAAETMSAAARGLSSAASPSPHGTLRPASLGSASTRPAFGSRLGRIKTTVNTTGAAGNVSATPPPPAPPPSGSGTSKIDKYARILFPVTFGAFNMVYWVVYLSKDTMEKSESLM
T3 sequence (P63080 26-473): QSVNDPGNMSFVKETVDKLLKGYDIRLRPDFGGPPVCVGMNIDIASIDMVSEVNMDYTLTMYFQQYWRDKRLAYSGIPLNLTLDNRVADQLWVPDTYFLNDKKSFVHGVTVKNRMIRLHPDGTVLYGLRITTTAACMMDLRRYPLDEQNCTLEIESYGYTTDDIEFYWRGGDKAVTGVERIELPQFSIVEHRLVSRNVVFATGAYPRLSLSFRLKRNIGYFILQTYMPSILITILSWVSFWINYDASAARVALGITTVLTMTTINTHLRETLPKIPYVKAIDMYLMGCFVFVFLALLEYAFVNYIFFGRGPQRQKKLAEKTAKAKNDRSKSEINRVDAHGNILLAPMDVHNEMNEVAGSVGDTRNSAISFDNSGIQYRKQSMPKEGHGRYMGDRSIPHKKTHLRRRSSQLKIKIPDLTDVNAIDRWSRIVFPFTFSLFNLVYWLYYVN
T3 sequence (P18506 25-449): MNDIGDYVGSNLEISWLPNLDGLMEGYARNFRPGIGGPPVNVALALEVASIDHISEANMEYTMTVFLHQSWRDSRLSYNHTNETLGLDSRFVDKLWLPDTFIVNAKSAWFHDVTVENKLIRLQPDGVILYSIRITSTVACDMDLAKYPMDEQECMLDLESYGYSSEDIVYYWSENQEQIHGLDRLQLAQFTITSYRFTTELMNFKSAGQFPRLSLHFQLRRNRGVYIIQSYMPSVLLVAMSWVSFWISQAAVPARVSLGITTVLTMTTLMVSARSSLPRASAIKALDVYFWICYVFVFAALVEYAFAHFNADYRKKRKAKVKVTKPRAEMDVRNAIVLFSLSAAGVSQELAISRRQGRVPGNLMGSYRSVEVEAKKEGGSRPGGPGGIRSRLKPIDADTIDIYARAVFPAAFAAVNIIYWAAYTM
Text: as §1, §2, §3, §4

α4β3^S409Aδ receptors = system: T4, α4β3^S409Aδ receptors; test: Quantification of spontaneous activity (Ispont) in HEK cells, whole-cell patch clamp; type: cell-based, mouse; conditions: α4β3S409Aδ, PS 10 µM (Fig. 6c)
T4 construct: expressed in transfected cells; host or cells: HEK 293
Text: as §1, §2, §3, §4

α4^Q246Mβ3δ receptors = system: T5, α4^Q246Mβ3δ receptors; test: as above; type: cell-based, mouse; conditions: α4Q246Mβ3δ, PS 10 µM (Fig. 6c)
T5 construct: expressed in transfected cells; host or cells: HEK 293
Text: as §1, §2, §3, §4

[5] = system: dentate gyrus granule cells (DGGCs); test: Tonic current in acute hippocampal brain slices; type: cell-based, rat; conditions: for Change in holding current: DGGCs;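 as to tonic current change with +PTX, Fig. 10a: Holding current density change on antagonist application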;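 as to tonic current change with Gabazine, Fig. 10a: Holding current density change on antagonist application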
Text: (§5) Adolescent male rats (P21–P28) were anaesthetised by inhalation with 5% isoflurane before dispatch and isolation of the brain in accordance with the United Kingdom Animals (Scientific Procedures) Act 1986. The brain was immersed in an ice-cold slicing solution containing (mM): 85 NaCl, 2.5 KCl, 1.25 NaH2PO4, 26 NaHCO3, 75 sucrose, 1 CaCl2, 4 MgCl2, 25 glucose and 2 kynurenic acid, (pH 7.4 when bubbled with 95% O2/5% CO2). Horizontal (hippocampal) and coronal (thalamic) sections (all 350 µm thick) were cut using a Leica VT1200S vibratome before transfer to a holding chamber at 37 °C. The solution was slowly exchanged over 1 h with aCSF containing (mM): 125 NaCl, 2.5 KCl, 1.25 NaH2PO4, 26 NaHCO3, 2 CaCl2, 1 MgCl2, 25 glucose and 2 kynurenic acid (pH 7.4 when bubbled with 95% O2/5% CO2) before maintaining the slices at room temperature prior to recording.
as §2
(§6) Recordings from hippocampal cultures used ~3–5 MΩ electrodes filled with an internal solution consisting of (mM): 140 CsCl, 2 NaCl, 10 HEPES, 5 EGTA, 2 MgCl2, 0.5 CaCl2, 2 Na2ATP, 0.5 Na2GTP, 2 QX-314, pH 7.3. Osmolarity was 300 ± 20 mOsm/L. Cells were perfused in the same Kreb’s solution described above, except for the addition of 2 mM kynurenic acid. Cells were voltage clamped at −60 mV. For current clamp, cells were recorded using an internal electrode solution consisting of (mM): 137 potassium gluconate, 3 KCl, 10 HEPES, 5 EGTA, 0.5 CaCl2, 2 MgCl2, 2 Na2ATP and 0.5 Na2GTP, pH 7.3. Osmolarity was 300 ± 20 mOsm/L. The external solution was as described for voltage-clamp experiments and the calculated junction potential was ~15 mV. Current was injected to hold cells at −70 mV if required. For slice recordings, slices were perfused in the aCSF described above, and the internal solution was the same as that used for cultured neuronal voltage-clamp recordings.

[6] = system: dorsal lateral geniculate nucleus (dLGN) thalamic relay neurons; test: Tonic current in acute thalamic brain slices; type: cell-based, rat;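 as to tonic current change with +PTX, Fig. 10b: Holding current density change on antagonist application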;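 as to tonic current change with Gabazine, Fig. 10b: Holding current density change on antagonist application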
Text: as §5, §2, §6

[7] = system: cultured hippocampal neurons; test: Voltage clamp of spontaneous/tonic GABAAR currents in transfected cultured hippocampal neurons; type: cell-based, rat; conditions: for Effect on holding current: gabazine 1 μM; for spontaneous/tonic current, Supp. Fig. 4e: concanamycin treated (vs control), individual cells
Procedure: This media was replaced 2 h later with neurobasal-A media supplemented with 1% v/v B-27, 50 units/ml penicillin-G, 50 µg/ml streptomycin, 0.5% v/v glutamax and 35 mM glucose. These cells were transfected 6–8 days later using either the calcium phosphate protocol described above, or Effectene with a protocol as described by the manufacturer (Qiagen) using a total 0.8 μg of cDNA per coverslip. […] Neurons were used for electrophysiological recording or confocal imaging 5–9 days later.
as §2, §6

α4β3δ receptors [8] = molecular target: T3, α4β3δ receptors; test: Agonist-evoked whole-cell currents and their modulation by Zn2+ / DS2 in HEK cells; type: cell-based, mouse
Text: as §1, §2, §3

α4β3 receptors = system: T6, α4β3 receptors; test: as above; type: cell-based, mouse; set-up: GABA current, Supp. Fig. 2b / GABA + DS2 current, Supp. Fig. 2b / GABA current, Supp. Fig. 2a: unit not given here; conditions: GABA with DS2, individual cells
T6 construct: expressed in transfected cells; host or cells: HEK 293
Text: as §1, §2, §3

α4β3δ GABAARs = system: T7, α4β3δ GABAARs; test: Single-channel recording of spontaneous currents, outside-out patches of HEK cells; type: cell-based, mouse; conditions: 100 μM PTX, absence of GABA
T7 construct: expressed in transfected cells; host or cells: HEK cells (outside-out patches)
Procedure: To limit ion channel density in individual patches, HEK cells were transfected with 5 ng α4, β3, δ and eGFP cDNAs. Resulting spontaneous single-channel currents were digitised at a sampling rate of 20 kHz and filtered at 5 kHz with a 4-pole Bessel filter (24 dB per octave). A fixed time resolution of 80 μs was used as a preset. Recordings were undertaken using thick-walled borosilicate patch pipettes (6–10 MΩ) filled with a solution containing (mM): 145 CsCl, 2.5 NaCl, 10 HEPES, 1 EGTA, 4 MgATP, pH 7.3. Osmolarity was 300 ± 20 mOsm/L. Cells were perfused with an external solution consisting of (mM): 145 NaCl, 2.5 KCl, 1 CaCl2, 1 MgCl2, 10 HEPES, 10 glucose, pH 7.3. Prior control recordings were obtained using untransfected HEK cells to identify endogenous channel currents.
Channel currents were digitally low pass filtered at 1–2 kHz prior to analysis. […] Channel dwell states were identified using a threshold cursor method. This state transition detection method for open and shut events was used to assemble an idealised record of the digitised data. Open times affected by channel stacking were not included in the analyses and sub-conductance states were also rare and excluded from the analysis.
The analysis of the dwell times for single-channel currents was performed by fitting a mixture of exponential components to the open time distributions. These defined the mean open times and their relative proportions (area of the components) based on using a Levenberg-Marquardt non-linear least-squares routine (WinEDR ver 3.8.7, courtesy of J Dempster, University of Strathclyde).

[9] = Gabazine alone, individual cells
[10] = eGFP- and β3-expressing neurons, concanamycin A 0.5 μM
[11] = PTX added after Gabazine, individual cells

Procedure for β3 homomeric receptors: HEK 293 cells were maintained in Dulbecco’s modified Eagle’s medium supplemented with 10% v/v heat-inactivated fetal calf serum, 100 units/ml penicillin-G and 100 µg/ml streptomycin and incubated at 37 °C in humidified 95% air/5% CO2. […] Cells were maintained within a passage range of P12–35. Dissociated HEK cells were plated onto 22 mm glass coverslips (VWR) coated in poly-L-lysine (Sigma). Cells were transfected >1 h later using a calcium phosphate protocol whereby a transfection solution was prepared consisting of 20 μl of 340 mM CaCl2, 24 μl of 2× HBS (50 mM HEPES, 280 mM NaCl, 2.8 mM Na2HPO4) and 4 μg cDNA per coverslip. […] Cells were recorded from 24–48 h later.
For all electrophysiological experiments, cells were visualised using a Nikon Eclipse E600FN microscope. Whole-cell currents were recorded using an Axopatch 200B amplifier and digitised using a Digidata 1322 A (Axon Instruments). […]
HEK cells were recorded from using borosilicate glass electrodes with resistances ~3–5 MΩ when filled with an internal solution containing (mM): 1 MgCl2, 140 KCl, 11 EGTA, 10 HEPES, 1 CaCl2, 2 K2ATP, pH 7.2. Osmolarity was 300 ± 20 mOsm/L, measured using a vapour pressure osmometer (Model 5520, Wescor Inc). […]

## PKA inhibitor peptide 14–22: selective PKA inhibitor peptide (GRTGRRNAI; UniProt P61925 15-23, looked up, fragment)
α4β3δ receptors [1]; α4β3δ, PKI 1 μM internal, 2 min dialysis (Fig. 5d)
  Ispont with PKA inhibitor in the patch electrode solution: significantly reduced

## CN[C@@H]1C[C@H]2O[C@@](C)([C@@H]1OC)n1c3ccccc3c3c4c(c5c6ccccc6n2c5c31)C(=O)NC4 [staurosporine]
[2]; phospho-null α4β3^S408A,S409Aδ, staurosporine 200 nM
  Effect on Ispont over 20 min compared to control: no effect
[2]; time 1 min
  Ispont during staurosporine application: 7.3% and 8.9% and 6.5% and 29.4%
[2]; time 10 min
  Ispont during staurosporine application: 5.4% and 6.9% and 9.5% and 5.6% and 26.6%
[2]; time 20 min
  Ispont during staurosporine application: 5.7% and 5.8% and 7.2% and 5%
[3]; phosphomimetic α4β3^S408D,S409Dδ, staurosporine 200 nM
  Effect on Ispont over 20 min compared to control: no effect
[3]; time 1 min
  Ispont during staurosporine application: 12.5% and 12.6%
[3]; time 10 min
  Ispont during staurosporine application: 11.9% and 9.4% and 7.9%
[3]; time 20 min
  Ispont during staurosporine application: 8.8% and 8.7% and 7.1%
α4β3δ receptors [1]; α4β3δ, time 1 min, individual cells
  Ispont during staurosporine application: decreased significantly and 13.2% and 6.4% and 6.3%
α4β3δ receptors [1]; α4β3δ, time 10 min, individual cells
  Ispont during staurosporine application: 9.3% and 12.3% and 3.2% and 4.6%
α4β3δ receptors [1]; α4β3δ, time 20 min, individual cells
  Ispont during staurosporine application: 7.5% and 8% and 2.3% and 3.8%

## CN(C)CCCn1cc(C2=C(c3c[nH]c4ccccc34)C(=O)NC2=O)c2ccccc21 [bisindolylmaleimide-I]
α4β3δ receptors [1]; α4β3δ, Bis-I 200 nM internal, 2 min dialysis (Fig. 5e)
  Ispont with PKC inhibitor in the patch electrode solution: significantly reduced

## pregnenolone sulphate [Pregnenolone sulfate]
α4β3δ receptors [4]
  Ispont in the presence of modulator: reduced
α4β3δ receptors [4]; listed as PS
  Ispont in the presence of modulator: 5.825% and 4.865% and 6.452% and 3.37% and 4.547% and 9.251% and 6.244% and 4.926%
α4β3^S409Aδ receptors
  Ispont in the presence of modulator: reduced
α4β3^S409Aδ receptors; listed as PS
  Ispont in the presence of modulator: 0.7651% and 0.3749% and 0.1269% and 0.9165% and 2.143% and 0.1295% and 1.652%
α4^Q246Mβ3δ receptors
  Ispont in the presence of modulator: reduced
α4^Q246Mβ3δ receptors; listed as PS
  Ispont in the presence of modulator: 3.665% and 9.322% and 7.162% and 6.1828% and 3.237% and 4.8719% and 4.011%

## COc1ccc(-c2ccc(=N)n(CCCC(=O)O)n2)cc1 [gabazine]
[5]; gabazine 20 µM
  Change in holding current: small increments in holding current
[5]; [9]
  tonic current change with Gabazine, Fig. 10a: -0.04645 and -0.07728 and -0.0199 and 0.08319 and 0 and -0.01133 and -0.01699 and -0.02885 and -0.01144
[6]; [9]
  tonic current change with Gabazine, Fig. 10b: 0.2002 and 0.032 and 0.025 and 0.02996 and 0.07463 and 0.08562 and 0.04525 and 0.03574 and -0.03067 and 0.01818
[6]; dLGN thalamic relay neurons, gabazine 20 µM
  Effect on tonic current: part-inhibited
β3 homomeric receptors; β3 alone, gabazine 1 µM
  Effect on spontaneous holding current: but not with β3 alone
[7]; eGFP-transfected neurons
  Effect on holding current: small agonist effect
[7]; β3-transfected neurons
  Effect on holding current: partial antagonism
α4β3δ receptors [4]; cells expressing α4, β3 and δ, gabazine 1 µM
  Effect on spontaneous holding current: behaved as an inverse agonist

## CCCC(C)C1(CC)C(=O)NC(=O)NC1=O (stereo not drawn) [pentobarbital]
β3 homomeric receptors; β3, 100 µM pentobarbital, n = 11
  Whole-cell current evoked by pentobarbital: 220 ± 94 pA

## O=C(Nc1c(-c2cccs2)nc2ccccn12)c1ccc(Cl)cc1 [DS2]
α4β3δ receptors [8]; DS2 5 μM
  Effect on 0.3 μM GABA responses: potentiated
α4β3δ receptors [8]; GABA with DS2, individual cells
  GABA + DS2 current, Supp. Fig. 2b: 1.82 and 1.25 and 0.43 and 1.45 and 3.44
α4β3 receptors
  GABA + DS2 current, Supp. Fig. 2b: 0.04 and 0.14 and 0.11 and 0.09 and 0.26

## C/C=C/[C@H]1O[C@@](O)([C@@H](C)[C@H](O)[C@H](C)[C@H]2OC(=O)/C(OC)=C/C(C)=C/[C@@H](C)[C@@H](O)[C@@H](CC)[C@@H](O)[C@H](C)C/C(C)=C/C=C/[C@@H]2OC)C[C@@H](O[C@H]2C[C@@H](O)[C@H](OC(N)=O)[C@@H](C)O2)[C@@H]1C [concanamycin A]
[7]; eGFP neurons
  spontaneous/tonic current, Supp. Fig. 4e: 1.043 and 0.1205 and 0.1429 and 0.1839 and 0.303 and 0.1613 and 0.3626 and 0.3579
[7]; [10]
  Effect on IPSCs: abolished
  Effect on PTX-sensitive spontaneous currents: without affecting
[7]; β3 neurons
  spontaneous/tonic current, Supp. Fig. 4e: 1.595 and 1.13 and 1.667 and 1.221 and 1.725 and 1.692

## CN([C@@H](Cc1ccc(OS(=O)(=O)c2cccc3cnccc23)cc1)C(=O)N1CCN(c2ccccc2)CC1)S(=O)(=O)c1cccc2cnccc12 [KN-62]
α4β3δ receptors [1]; KN-62 treated (vs control), individual cells
  spontaneous activity, Supp. Fig. 3e: 9.722 and 13.6922 and 18.602 and 3.467 and 9.093 and 9.783 and 14.5969 and 3.449 and 5.659
α4β3δ receptors [1]; α4β3δ, KN-62 3 µM internal
  Effect on Ispont of internally applied CaMKII inhibitor: no effect

## picrotoxin [PTX]
[5]; PTX 100 μM after gabazine
  Change in holding current: large reduction in holding current
[5]; [11]
  tonic current change with +PTX, Fig. 10a: 0.1792 and 0.4018 and 0.1492 and 0.2163 and 0.07528 and 0.1359 and 0.2209 and 0.2596 and 0.5835
[6]; [11]
  tonic current change with +PTX, Fig. 10b: 0.2529 and 0.032 and 0.04 and 0.1019 and 0.1492 and 0.1027 and 0.03878 and 0.06433 and 0.1595 and 0.03636
[6]; dLGN thalamic relay neurons, PTX 100 μM after gabazine
  Effect on residual tonic current: blocked
α4β3δ GABAARs
  Effect on spontaneous single-channel currents: blocked
